The numbers were not newly measured in US20080095722A1, “Extended Surface Aggregates in the Treatment of Skin Conditions” (IDEA AG, priority 2004, published 2008), which cites them from elsewhere.

Series [1] deals with melanocytes. Particulars: cell cultures, cited from earlier work.
The test system of series [2] is erythema. Particulars: gel base or alcoholic solution; cited from earlier work.

Read-outs that look alike come from different tables or passages of the source.

Regarding `CC(=O)Oc1ccccc1C(=O)O` [acetylsalicylic acid], the results for the effect on melanocytes entry in series [1] (low concentrations) and in series [1] (very high concentrations) were “stimulate melanocytes” and “may cause melanocyte apoptosis”, respectively.
In the case of `COc1ccc2c(c1)c(CC(=O)O)c(C)n2C(=O)c1ccc(Cl)cc1` [indomethacin], the “inhibition of the appearance of erythema” value in series [2] is reported as “some inhibition of the appearance of erythema”.
